{"source": "the supplement of paper PMC11208160"}
{"assay": "recombinant barcode read abundance after kanamycin selection (control-corrected) (log10(CPM+1)); higher = more efficient recombination; sequences stand for … in AGTGCAGAGAAAATCGGCCAGTTTTCTCTGCCTGCAGTCCGCATGCCGT…AGATTTATGCAGCGGACTGCCTTTCTCCCAAAGTGATAAACCGGACAGTATCATGGACCGGTTTTCCCGGTAATCCGTATTTGCAAGGTTGGTTTCACT; site = the 11-nt target", "method_in_brief": "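Pooled E. coli screen pairing targets with IS621 bridge RNA target-binding loops. Each oligo (promoter, target, barcode, J23119-driven first 104 bridge RNA bases) was Gibson-cloned into a vector with the remaining 73 bp and T7-inducible recombinase, then co-electroporated with a donor plasmid. Two replicates each were plated on chloramphenicol/ampicillin LB agar (control) or chloramphenicol/ampicillin/kanamycin with 0.1 mM IPTG. Recombination efficiency is recombinant-junction barcode counts as CPM, averaged, control-corrected, reported as log10(CPM+1).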"}
{"sequence": "CTAACTCCTTGGGTTCTAACCTGTTGCAT (site CTAAATCCTAT)", "recombinant barcode read abundance (log10)": 0.0865}
{"sequence": "CTAACTCCTTGGGTTCTAACCTGTTGCAT (site CTAACTCCTAT)", "recombinant barcode read abundance (log10)": 1.1}
{"sequence": "CTAACTCCTTGGGTTCTAACCTGTTGCAT (site CTAAGTCCTAT)", "recombinant barcode read abundance (log10)": 0.0705}
{"sequence": "CTAACTCCTTGGGTTCTAACCTGTTGCAT (site CTAATTCCTAT)", "recombinant barcode read abundance (log10)": 0.0675}
{"sequence": "CTAAGAGCTTGGGTTCTAACCTGTTGCCG (site CTAAGAGCTCG)", "recombinant barcode read abundance (log10)": 1.65}
{"sequence": "CTAAGAGCTTGGGTTCTAACCTGTTGCCG (site CTAAGAGCTCT)", "recombinant barcode read abundance (log10)": 0.504}
{"sequence": "CTAAGCCCTTGGGTTCTAACCTGTTGCGG (site CTAAGCCCTCC)", "recombinant barcode read abundance (log10)": 1.99}
{"sequence": "CTAAGCCCTTGGGTTCTAACCTGTTGCGG (site CTGAGCCCTCG)", "recombinant barcode read abundance (log10)": 0.0837}
{"sequence": "CTAAGCTCTTGGGTTCTAACCTGTTGCTG (site CTAAGCTCTAA)", "recombinant barcode read abundance (log10)": 0.259}
{"sequence": "CTAAGCTCTTGGGTTCTAACCTGTTGCTG (site CTAAGCTCTCA)", "recombinant barcode read abundance (log10)": 1.25}
{"sequence": "CTAAGCTCTTGGGTTCTAACCTGTTGCTG (site CTAAGCTCTGA)", "recombinant barcode read abundance (log10)": 0.23}
{"sequence": "CTAAGCTCTTGGGTTCTAACCTGTTGCTG (site CTAAGCTCTTA)", "recombinant barcode read abundance (log10)": 0.349}
{"sequence": "CTAAGGTCTTGGGTTCTAACCTGTTGCAT (site CTAAGGTCTAA)", "recombinant barcode read abundance (log10)": 0.688}
{"sequence": "CTAAGGTCTTGGGTTCTAACCTGTTGCAT (site CTAAGGTCTAC)", "recombinant barcode read abundance (log10)": 0.176}
{"sequence": "CTAAGGTCTTGGGTTCTAACCTGTTGCAT (site CTAAGGTCTAG)", "recombinant barcode read abundance (log10)": 0.214}
{"sequence": "CTAAGGTCTTGGGTTCTAACCTGTTGCAT (site CTAAGGTCTAT)", "recombinant barcode read abundance (log10)": 2.33}
{"sequence": "CTAAGTCCTTGGGTTCTAACCTGTTGCAT (site CTAAATCCTAT)", "recombinant barcode read abundance (log10)": 0.809}
{"sequence": "CTAAGTCCTTGGGTTCTAACCTGTTGCAT (site CTAACTCCTAT)", "recombinant barcode read abundance (log10)": 0.0677}
{"sequence": "CTAAGTCCTTGGGTTCTAACCTGTTGCAT (site CTAAGTCCTAT)", "recombinant barcode read abundance (log10)": 1.34}
{"sequence": "CTAAGTCCTTGGGTTCTAACCTGTTGCAT (site CTAATTCCTAT)", "recombinant barcode read abundance (log10)": 0.116}
{"sequence": "CTAATAGCTTGGGTTCTAACCTGTTGCCA (site AGTCCGTCTAT)", "recombinant barcode read abundance (log10)": 0.186}
{"sequence": "CTAATAGCTTGGGTTCTAACCTGTTGCCA (site CTAATAGCTTG)", "recombinant barcode read abundance (log10)": 0.262}
{"sequence": "CTAATGACTTGGGTTCTAACCTGTTGCAC (site CTAATGACTGT)", "recombinant barcode read abundance (log10)": 1.43}
{"sequence": "CTAATGACTTGGGTTCTAACCTGTTGCAC (site CTAATGCCTAT)", "recombinant barcode read abundance (log10)": 0.227}
{"sequence": "CTAATGCCTTGGGTTCTAACCTGTTGCAT (site CTAATGACTGT)", "recombinant barcode read abundance (log10)": 0.0624}
{"sequence": "CTAATGCCTTGGGTTCTAACCTGTTGCAT (site CTAATGCCTAT)", "recombinant barcode read abundance (log10)": 0.175}
{"sequence": "CTAATTACTTGGGTTCTAACCTGTTGCAC (site CTAATTACTGT)", "recombinant barcode read abundance (log10)": 0.249}
{"sequence": "CTAATTACTTGGGTTCTAACCTGTTGCAC (site GTAACTACTGT)", "recombinant barcode read abundance (log10)": 0.114}
{"sequence": "CTAATTACTTGGGTTCTAACCTGTTGCCT (site CTAATTACTAG)", "recombinant barcode read abundance (log10)": 0.946}
{"sequence": "CTAATTACTTGGGTTCTAACCTGTTGCCT (site CTACTTACTAG)", "recombinant barcode read abundance (log10)": 0.0931}
{"sequence": "CTAATTACTTGGGTTCTAACCTGTTGCCT (site CTAGTTACTAG)", "recombinant barcode read abundance (log10)": 0.159}
{"sequence": "CTAATTACTTGGGTTCTAACCTGTTGCCT (site CTATTTACTAG)", "recombinant barcode read abundance (log10)": 0.196}
{"sequence": "CTAATTCCTTGGGTTCTAACCTGTTGCAT (site CTAAATCCTAT)", "recombinant barcode read abundance (log10)": 0.0881}
{"sequence": "CTAATTCCTTGGGTTCTAACCTGTTGCAT (site CTAACTCCTAT)", "recombinant barcode read abundance (log10)": 0.0994}
{"sequence": "CTAATTCCTTGGGTTCTAACCTGTTGCAT (site CTAAGTCCTAT)", "recombinant barcode read abundance (log10)": 0.0341}
{"sequence": "CTAATTCCTTGGGTTCTAACCTGTTGCAT (site CTAATTCCTAT)", "recombinant barcode read abundance (log10)": 0.252}
{"sequence": "CTACACTCTTGGGTTCTAACCTGTTGCCT (site CAACACTCTAG)", "recombinant barcode read abundance (log10)": 1.07}
{"sequence": "CTACACTCTTGGGTTCTAACCTGTTGCCT (site CCACACTCTAG)", "recombinant barcode read abundance (log10)": 0.409}
{"sequence": "CTACACTCTTGGGTTCTAACCTGTTGCCT (site CGACACTCTAG)", "recombinant barcode read abundance (log10)": 0.28}
{"sequence": "CTACACTCTTGGGTTCTAACCTGTTGCCT (site CTACACTCTAG)", "recombinant barcode read abundance (log10)": 2.18}
{"sequence": "CTACAGCCTTGGGTTCTAACCTGTTGCTT (site CTACAACCTAA)", "recombinant barcode read abundance (log10)": 0.636}
{"sequence": "CTACAGCCTTGGGTTCTAACCTGTTGCTT (site CTACACCCTAA)", "recombinant barcode read abundance (log10)": 0.0559}
{"sequence": "CTACAGCCTTGGGTTCTAACCTGTTGCTT (site CTACAGCCTAA)", "recombinant barcode read abundance (log10)": 0.798}
{"sequence": "CTACAGCCTTGGGTTCTAACCTGTTGCTT (site CTACATCCTAA)", "recombinant barcode read abundance (log10)": 0.0933}
{"sequence": "CTACCAACTTGGGTTCTAACCTGTTGCCT (site CTACCAACTAG)", "recombinant barcode read abundance (log10)": 0.41}
{"sequence": "CTACCAACTTGGGTTCTAACCTGTTGCCT (site CTACCACCTAG)", "recombinant barcode read abundance (log10)": 0.0179}
{"sequence": "CTACCAACTTGGGTTCTAACCTGTTGCCT (site CTACCAGCTAG)", "recombinant barcode read abundance (log10)": 0.124}
{"sequence": "CTACCAACTTGGGTTCTAACCTGTTGCCT (site CTACCATCTAG)", "recombinant barcode read abundance (log10)": 0.0148}
{"sequence": "CTACCAGCTTGGGTTCTAACCTGTTGCCT (site CTACCAACTAG)", "recombinant barcode read abundance (log10)": 0.191}
{"sequence": "CTACCAGCTTGGGTTCTAACCTGTTGCCT (site CTACCACCTAG)", "recombinant barcode read abundance (log10)": 0.0143}
{"sequence": "CTACCAGCTTGGGTTCTAACCTGTTGCCT (site CTACCAGCTAG)", "recombinant barcode read abundance (log10)": 1.17}
{"sequence": "CTACCAGCTTGGGTTCTAACCTGTTGCCT (site CTACCATCTAG)", "recombinant barcode read abundance (log10)": 0.0991}
{"sequence": "CTACCATCTTGGGTTCTAACCTGTTGCCG (site CTACCATCTCG)", "recombinant barcode read abundance (log10)": 0.255}
{"sequence": "CTACCATCTTGGGTTCTAACCTGTTGCCG (site CTACCGTCTCC)", "recombinant barcode read abundance (log10)": 0.157}
{"sequence": "CTACCCTCTTGGGTTCTAACCTGTTGCAT (site CTAACCTCTAT)", "recombinant barcode read abundance (log10)": 0.026}
{"sequence": "CTACCCTCTTGGGTTCTAACCTGTTGCAT (site CTACCCTCTAT)", "recombinant barcode read abundance (log10)": 2.87}
{"sequence": "CTACCCTCTTGGGTTCTAACCTGTTGCAT (site CTAGCCTCTAT)", "recombinant barcode read abundance (log10)": 0.0456}
{"sequence": "CTACCCTCTTGGGTTCTAACCTGTTGCAT (site CTATCCTCTAT)", "recombinant barcode read abundance (log10)": 0.413}
{"sequence": "CTACCTTCTTGGGTTCTAACCTGTTGCCT (site CAACCTTCTAG)", "recombinant barcode read abundance (log10)": 0.203}
{"sequence": "CTACCTTCTTGGGTTCTAACCTGTTGCCT (site CTACCTTCTAG)", "recombinant barcode read abundance (log10)": 1.37}
{"sequence": "CTACGGACTTGGGTTCTAACCTGTTGCTG (site CTACGAACTCA)", "recombinant barcode read abundance (log10)": 1.82}
{"sequence": "CTACGGACTTGGGTTCTAACCTGTTGCTG (site CTACGCACTCA)", "recombinant barcode read abundance (log10)": 0.206}
{"sequence": "CTACGGACTTGGGTTCTAACCTGTTGCTG (site CTACGGACTCA)", "recombinant barcode read abundance (log10)": 2.77}
{"sequence": "CTACGGACTTGGGTTCTAACCTGTTGCTG (site CTACGTACTCA)", "recombinant barcode read abundance (log10)": 0.0171}
{"sequence": "CTACGTACTTGGGTTCTAACCTGTTGCCT (site ATACGTACTAG)", "recombinant barcode read abundance (log10)": 0.00899}
{"sequence": "CTACGTACTTGGGTTCTAACCTGTTGCCT (site CTACGTACTAG)", "recombinant barcode read abundance (log10)": 1.3}
{"sequence": "CTACGTACTTGGGTTCTAACCTGTTGCCT (site GTACGTACTAG)", "recombinant barcode read abundance (log10)": 0.0661}
{"sequence": "CTACGTACTTGGGTTCTAACCTGTTGCCT (site TTACGTACTAG)", "recombinant barcode read abundance (log10)": 0.0415}
{"sequence": "CTACGTACTTGGGTTCTAACCTGTTGCTG (site CTACGAACTCA)", "recombinant barcode read abundance (log10)": 0.0136}
{"sequence": "CTACGTACTTGGGTTCTAACCTGTTGCTG (site CTACGCACTCA)", "recombinant barcode read abundance (log10)": 0.138}
{"sequence": "CTACGTACTTGGGTTCTAACCTGTTGCTG (site CTACGGACTCA)", "recombinant barcode read abundance (log10)": 0.0671}
{"sequence": "CTACGTACTTGGGTTCTAACCTGTTGCTG (site CTACGTACTCA)", "recombinant barcode read abundance (log10)": 1.75}
{"sequence": "CTACTAACTTGGGTTCTAACCTGTTGCCT (site CTACTAACTAA)", "recombinant barcode read abundance (log10)": 0.0105}
{"sequence": "CTACTAACTTGGGTTCTAACCTGTTGCCT (site CTACTAACTAC)", "recombinant barcode read abundance (log10)": 0.0952}
{"sequence": "CTACTAACTTGGGTTCTAACCTGTTGCCT (site CTACTAACTAG)", "recombinant barcode read abundance (log10)": 1.3}
{"sequence": "CTACTAACTTGGGTTCTAACCTGTTGCCT (site CTACTAACTAT)", "recombinant barcode read abundance (log10)": 0.182}
{"sequence": "CTACTAGCTTGGGTTCTAACCTGTTGCAC (site CTACTAGCTAT)", "recombinant barcode read abundance (log10)": 0.0299}
{"sequence": "CTACTAGCTTGGGTTCTAACCTGTTGCAC (site CTACTAGCTCT)", "recombinant barcode read abundance (log10)": 0.433}
{"sequence": "CTACTAGCTTGGGTTCTAACCTGTTGCAC (site CTACTAGCTGT)", "recombinant barcode read abundance (log10)": 1.66}
{"sequence": "CTACTAGCTTGGGTTCTAACCTGTTGCAC (site CTACTAGCTTT)", "recombinant barcode read abundance (log10)": 0.727}
{"sequence": "CTACTTACTTGGGTTCTAACCTGTTGCCT (site CTAATTACTAG)", "recombinant barcode read abundance (log10)": 0.0298}
{"sequence": "CTACTTACTTGGGTTCTAACCTGTTGCCT (site CTACTTACTAG)", "recombinant barcode read abundance (log10)": 0.741}
{"sequence": "CTACTTACTTGGGTTCTAACCTGTTGCCT (site CTAGTTACTAG)", "recombinant barcode read abundance (log10)": 0}
{"sequence": "CTACTTACTTGGGTTCTAACCTGTTGCCT (site CTATTTACTAG)", "recombinant barcode read abundance (log10)": 0.1}
{"sequence": "CTAGAAGCTTGGGTTCTAACCTGTTGCGG (site CTAGAAGCTCC)", "recombinant barcode read abundance (log10)": 1.31}
{"sequence": "CTAGAAGCTTGGGTTCTAACCTGTTGCGG (site CTGGAACCTCC)", "recombinant barcode read abundance (log10)": 0.401}
